Holding throughout (format): cell-based
Assay [1] relates to S. aureus (ATCC #25983). Description: Zone-of-inhibition, ranked, bismuth thiol coated SIS discs (Example 1). The note with it: 24 hours. Here is the method: (§1) Seven bismuth thiol compounds (50 mg each) were obtained from Microbion, Inc. (Bozeman, Mont.). These compounds included 2 preparations of bismuth-1,2-ethanedithiol (BisEDT) (Molar ratio 1:1.5), 2 preparations of bismuth-2,3-dimercaptopropanol (BisBAL) (1:1 and 1:1.5), bismuth dithioethylhritol (BisERY) (1:1.5), bismuth-3,4-dimercatotoluene (BisTOL) (1:1.5) and bismuth butanedithiol (BisBDT) (1:1.5). Purified small intestinal submucosa (SIS) (Cook Biotech Incorporated, West Lafayette, Ind.) was made into wetted 4-layer constructs which were laminated together by lyophilization and subsequently cut into 15 mm discs (˜1.76 cm^2) using a disc punch. Bismuth thiols were resuspended in dimethyl sulfoxide (DMSO) and diluted to appropriate concentrations for coating. Discs were coated with the bismuth thiol solutions at three final concentrations using 17.6 μl of the appropriate solution per disc for a final concentration of 1, 10, or 100 μg/cm^2. The discs were subsequently placed in a lyophilizer overnight to remove the DMSO solvent. Control discs were prepared using 17.6 μl of DMSO without a bismuth thiol preparation. 3 bacteria were used for this experiment: S. aureus (ATCC #25983), P. aeruginosa (ATCC #27853), and E. coli (ATCC #25922). Bacteria was grown in Tryptic Soy Broth for 16-24 hours before placing a lawn on Tryptic Soy Agar in 100 mm Petri dishes.
(§2) Sixty six samples were tested in total (7 bismuth thiol preparations 3 doses=21+1 control=22×3 bacteria=66). A lawn of one of the three bacteria investigated was swabbed onto the Tryptic Soy Agar. The bismuth thiol coated disc was placed approximately in the center of the plate and rehydrated with ˜50 μl of sterile saline. Plates were incubated inverted for 24 hours at which time pictures were taken with a digital camera. Zones-of-inhibition were categorized by the approximate distance of bacterial growth inhibition from the disc edge. The effectiveness was ranked as follows: (−) for no growth retardation, (+) for growth retardation at <1 mm from disc edge, (++) for growth retardation 1-3 mm from disc edge, and (+++) for growth retardation greater than 3 mm from disc edge. Results are shown below in Tables 2-4.

Assay [2] deals with P. aeruginosa (ATCC #27853). The assay is described as above. The conditions noted are these: 24 hours. Here is the method:
as §1, §2

For assay [3], the system named is E. coli (ATCC #25922). The assay is described as above. The note with it: 24 hours. Here is the method:
as §1, §2

The subject of assay [4] is S. aureus (ATCC #25983). As to the kind of experiment: Zone-of-inhibition measured by image analysis, coated SIS discs (Example 2). The conditions noted are these: 10 μg/cm^2 on SIS disc, 24 hours, n=3. Here is the method: (§3) BisEDT (Molar ratio 1:1.5), BisBAL (1:1.5), and BisERY (1:1.5) (50 mg each) were obtained from Microbion, Inc. Small intestinal submucosa (SIS) was obtained and processed into 4-layer lyophilized sheets as described in Example 1. The sheets were subsequently cut into 15 mm discs (˜1.76 cm^2) using a disc punch. Bismuth thiols were resuspended in dimethyl sulfoxide (DMSO) and diluted to 0.35 μg/μl for coating. Discs were coated with the bismuth thiol solutions 50 μl of the appropriate solution per disc for a final concentration 10 μg/cm^2 (0.35 μg/μl*50 μl=17.5 μg/1.76 cm^2=10 μg/cm^2). The discs were subsequently placed in a lyophilizer overnight to remove the DMSO solvent. Control discs were prepared using 50 μl of DMSO without a bismuth thiol preparation. 3 bacteria were used for this experiment: S. aureus (ATCC #25983), P. aeruginosa (ATCC #27853), and E. coli (ATCC #25922). Bacteria was grown in Tryptic Soy Broth for 16-24 hours before placing a lawn on Tryptic Soy Agar in 100 mm Petri dishes.
(§4) Thirty samples were tested in total (3 bismuth thiol preparations @ n=3→9+1 control=10×3 bacteria=30). A lawn of one of the three bacteria investigated was swabbed onto the Tryptic Soy Agar. The bismuth thiol coated disc was rehydrated for ˜5 minutes in sterile saline and placed approximately in the center of the plate. Plates were incubated inverted for 24 hours at which time pictures were taken with a digital camera. Zones-of-inhibition were measured using image analysis software (Spot RT) by determining the distance of bacterial growth inhibition from the disc edge.

The subject of assay [5] is P. aeruginosa (ATCC #27853). The description is as above. The note with it: 10 μg/cm^2 on SIS disc, 24 hours, n=3. Here is the method:
as §3, §4

The subject of assay [6] is E. coli (ATCC #25922). Described as above. The note with it: 10 μg/cm^2 on SIS disc, 24 hours, n=3. Here is the method:
as §3, §4

The subject of assay [7] is S. aureus (ATCC #25983). Description: Zone-of-inhibition after various rehydration times of coated SIS discs (Example 3). Here is the method:
BisEDT (Molar ratio 1:1.5) and BisBAL (1:1.5) (50 mg each) were obtained from Microbion, Inc. Small intestinal submucosa (SIS) was obtained and processed into 4-layer lyophilized sheets as described in Example 1. The sheets were subsequently cut into 15 mm discs (˜1.76 cm^2) using a disc punch. Bismuth thiols were resuspended in dimethyl sulfoxide (DMSO) and diluted to appropriate concentrations for coating. Discs were coated with the bismuth thiol solutions at a final concentration of 0.35 μg/μl using 50 μl of the solution per disc for a final concentration of 10 μg/cm^2. The discs were subsequently placed in a lyophilizer overnight to remove the DMSO solvent. S. aureus (ATCC #25983) was used as the bacteria for this experiment. Bacteria was grown in Tryptic Soy Broth for 16-24 hours before placing a lawn on Tryptic Soy Agar in 100 mm Petri dishes.
Thirty six samples were tested in total (2 BT*n=3→6*6 rehydration times→36). A lawn of S. aureus was swabbed onto the Tryptic Soy Agar. For the 0 rehydration time point, the bismuth thiol coated disc was placed approximately in the center of the plate and rehydrated with ˜50 μl of sterile saline. Other rehydration times were varied at 5, 10, 20, 30, or 60 minutes. For this, the samples were placed in sterile saline and a timer set for each time. At the appropriate time, samples were removed from the saline and placed approximately in the center of the plate. Plates were incubated inverted for 24 hours at which time pictures were taken with a digital camera. Zones-of-inhibition were compared visually between groups.

Consider bismuth dithioethylhritol [Bis ERY], for which the “Zone-of-inhibition rank (S. aureus)” value in assay [1] (1 μg/cm^2 on SIS disc) is “−”; in assay [1] (10 μg/cm^2 on SIS disc), “++ ((++) for growth retardation 1-3 mm from disc edge)”; in assay [1] (100 μg/cm^2 on SIS disc), “+++ ((+++) for growth retardation greater than 3 mm from disc edge)”. Also, the “Zone-of-inhibition rank (P. aeruginosa)” value is listed as “−” in assay [2] (1 μg/cm^2 on SIS disc), “++ ((++) for growth retardation 1-3 mm from disc edge)” in assay [2] (10 μg/cm^2 on SIS disc) and “+++ ((+++) for growth retardation greater than 3 mm from disc edge)” in assay [2] (100 μg/cm^2 on SIS disc). Also, the “Zone-of-inhibition rank (E. coli)” value in assay [3] (1 μg/cm^2 on SIS disc) is “−”; in assay [3] (10 μg/cm^2 on SIS disc), “++ ((++) for growth retardation 1-3 mm from disc edge)”; in assay [3] (100 μg/cm^2 on SIS disc) it was “+++ ((+++) for growth retardation greater than 3 mm from disc edge)”.

Take bismuth-1,2-ethanedithiol [Bis EDT1]: the “Zone-of-inhibition rank (S. aureus)” value is listed as “+ ((+) for growth retardation at <1 mm from disc edge)” in assay [1] (1 μg/cm^2 on SIS disc), “++ ((++) for growth retardation 1-3 mm from disc edge)” in assay [1] (10 μg/cm^2 on SIS disc) and “+++ ((+++) for growth retardation greater than 3 mm from disc edge)” in assay [1] (100 μg/cm^2 on SIS disc). Besides, the results for the “Zone-of-inhibition rank (P. aeruginosa)” value in assay [2] (1 μg/cm^2 on SIS disc), in assay [2] (10 μg/cm^2 on SIS disc) and in assay [2] (100 μg/cm^2 on SIS disc) were “−”, “+ ((+) for growth retardation at <1 mm from disc edge)” and “+ ((+) for growth retardation at <1 mm from disc edge)”, respectively. Besides, the “Zone-of-inhibition rank (E. coli)” value in assay [3] (1 μg/cm^2 on SIS disc) is recorded as “−”; in assay [3] (10 μg/cm^2 on SIS disc), “−”; in assay [3] (100 μg/cm^2 on SIS disc), “+ ((+) for growth retardation at <1 mm from disc edge)”.

Turning to `OCC(S)CS.[Bi]` (stereo not shown) [BisBAL, bismuth-2,3-dimercaptopropanol], the “Zone-of-inhibition, distance of bacterial growth inhibition from the disc edge” value in assay [4] is given as 7.27; in assay [5] it was 0.16; in assay [6] it was 1.50. The “Effect of rehydration time on zone-of-inhibition, visual comparison” value in assay [7] (10 μg/cm^2, rehydration 0-60 minutes in sterile saline) is “no visual differences between the rehydration time points”. Moreover, in assay [7] (10 μg/cm^2 on SIS disc, rehydration 0, 5, 10, 20, 30 or 60 minutes), the “Zone-of-inhibition, visual” value is listed as “significant effectiveness in creating a zone-of-inhibition”.

For the molecule `OCC(S)CS.[Bi]` (stereo not shown) [Bis BAL2, bismuth-2,3-dimercaptopropanol], the “Zone-of-inhibition rank (S. aureus)” value in assay [1] (1 μg/cm^2 on SIS disc) was “+ ((+) for growth retardation at <1 mm from disc edge)”; in assay [1] (10 μg/cm^2 on SIS disc) it was “+++ ((+++) for growth retardation greater than 3 mm from disc edge)”. Besides, the “Zone-of-inhibition rank (P. aeruginosa)” value is listed as “−” in assay [2] (1 μg/cm^2 on SIS disc), “+ ((+) for growth retardation at <1 mm from disc edge)” in assay [2] (10 μg/cm^2 on SIS disc) and “+++ ((+++) for growth retardation greater than 3 mm from disc edge)” in assay [2] (100 μg/cm^2 on SIS disc). Besides, the “Zone-of-inhibition rank (E. coli)” value in assay [3] (1 μg/cm^2 on SIS disc) was “−”; in assay [3] (10 μg/cm^2 on SIS disc) it was “++ ((++) for growth retardation 1-3 mm from disc edge)”; in assay [3] (100 μg/cm^2 on SIS disc), “+++ ((+++) for growth retardation greater than 3 mm from disc edge)”.

`OCC(S)CS.[Bi]` (stereo not shown) [Bis BAL1, bismuth-2,3-dimercaptopropanol]: the figures for the “Zone-of-inhibition rank (S. aureus)” value in assay [1] (1 μg/cm^2 on SIS disc), in assay [1] (10 μg/cm^2 on SIS disc) and in assay [1] (100 μg/cm^2 on SIS disc) were “+ ((+) for growth retardation at <1 mm from disc edge)”, “+++ ((+++) for growth retardation greater than 3 mm from disc edge)” and “+++ ((+++) for growth retardation greater than 3 mm from disc edge)”, respectively. In addition, the “Zone-of-inhibition rank (P. aeruginosa)” value in assay [2] (1 μg/cm^2 on SIS disc) was “−”; in assay [2] (10 μg/cm^2 on SIS disc), “+ ((+) for growth retardation at <1 mm from disc edge)”; in assay [2] (100 μg/cm^2 on SIS disc), “+++ ((+++) for growth retardation greater than 3 mm from disc edge)”. Further, the “Zone-of-inhibition rank (E. coli)” value is “−” in assay [3] (1 μg/cm^2 on SIS disc), “++ ((++) for growth retardation 1-3 mm from disc edge)” in assay [3] (10 μg/cm^2 on SIS disc) and “+++ ((+++) for growth retardation greater than 3 mm from disc edge)” in assay [3] (100 μg/cm^2 on SIS disc).

Consider bismuth-3,4-dimercatotoluene [Bis TOL], for which the “Zone-of-inhibition rank (S. aureus)” value in assay [1] (1 μg/cm^2 on SIS disc) is “−”; in assay [1] (10 μg/cm^2 on SIS disc), “+ ((+) for growth retardation at <1 mm from disc edge)”; in assay [1] (100 μg/cm^2 on SIS disc) it was “+ ((+) for growth retardation at <1 mm from disc edge)”. Further, the “Zone-of-inhibition rank (P. aeruginosa)” value in assay [2] (1 μg/cm^2 on SIS disc), in assay [2] (10 μg/cm^2 on SIS disc) and in assay [2] (100 μg/cm^2 on SIS disc) was “−” throughout. For the same molecule, the “Zone-of-inhibition rank (E. coli)” value in assay [3] (1 μg/cm^2 on SIS disc), in assay [3] (10 μg/cm^2 on SIS disc) and in assay [3] (100 μg/cm^2 on SIS disc) was “−” each time.

In the case of bismuth butanedithiol [Bis BDT], the “Zone-of-inhibition rank (S. aureus)” value in assay [1] (1 μg/cm^2 on SIS disc) was “−”; in assay [1] (10 μg/cm^2 on SIS disc), “++ ((++) for growth retardation 1-3 mm from disc edge)”; in assay [1] (100 μg/cm^2 on SIS disc) it was “+++ ((+++) for growth retardation greater than 3 mm from disc edge)”. The “Zone-of-inhibition rank (P. aeruginosa)” value is reported as “−” in assay [2] (1 μg/cm^2 on SIS disc), “+ ((+) for growth retardation at <1 mm from disc edge)” in assay [2] (10 μg/cm^2 on SIS disc) and “++ ((++) for growth retardation 1-3 mm from disc edge)” in assay [2] (100 μg/cm^2 on SIS disc). Moreover, the “Zone-of-inhibition rank (E. coli)” value in assay [3] (1 μg/cm^2 on SIS disc) was “−”; in assay [3] (10 μg/cm^2 on SIS disc) it was “++ ((++) for growth retardation 1-3 mm from disc edge)”; in assay [3] (100 μg/cm^2 on SIS disc), “++ ((++) for growth retardation 1-3 mm from disc edge)”.

Consider bismuth-1,2-ethanedithiol [Bis EDT2], for which the “Zone-of-inhibition rank (S. aureus)” value in assay [1] (1 μg/cm^2 on SIS disc) is “++ ((++) for growth retardation 1-3 mm from disc edge)”; in assay [1] (10 μg/cm^2 on SIS disc), “++ ((++) for growth retardation 1-3 mm from disc edge)”; in assay [1] (100 μg/cm^2 on SIS disc), “+++ ((+++) for growth retardation greater than 3 mm from disc edge)”. Besides, the results for the “Zone-of-inhibition rank (P. aeruginosa)” value in assay [2] (1 μg/cm^2 on SIS disc), in assay [2] (10 μg/cm^2 on SIS disc) and in assay [2] (100 μg/cm^2 on SIS disc) were “−”, “−” and “++ ((++) for growth retardation 1-3 mm from disc edge)”, respectively. For the same molecule, the “Zone-of-inhibition rank (E. coli)” value in assay [3] (1 μg/cm^2 on SIS disc) was “−”; in assay [3] (10 μg/cm^2 on SIS disc) it was “+ ((+) for growth retardation at <1 mm from disc edge)”; in assay [3] (100 μg/cm^2 on SIS disc), “+ ((+) for growth retardation at <1 mm from disc edge)”.
